Assay results from publication PMC8456932, “Amphiphilic Iodine(III) Reagents for the Lipophilization of Peptides in Water” (Angewandte Chemie (International Ed. in English), 2021).
Where a SMILES comes first, the peptide text is derived from it. The star is where a group is joined. Ethynyl(2-Si(iPr)3) = CC(C)[Si](C#C*)(C(C)C)C(C)C

Assays:
Type in all cases: physicochemical
[1] = Partition coefficient (LogP), octanol/water method
Text: [24] Determined using the octanol/water method according to: J. A.Arnott, S. L.Planey, Expert Opin. Drug Discovery 2012, 7, 863–875.
Calibration with 11a was achieved through the preparation of several samples of different concentrations and their analysis on RP HPLC. These analyses were repeated three times in order to obtain an average curve of calibration. The following linear regression was obtained: Y = 470.12 X + 284.02 and R = 0.9887, where Y is the absorption in mAUs -1 at 214 nm and X the concentration of 11a in mM.
Figure S3. calibration curve of 11a.
Calculation of Partition coefficient ( LogP)4
2.5 mg (4.0 µmol) 11a was dissolved in 1.7 mL octanol -H2O mixture (0.85 mL 1 -Octanol + 0.85 mL milli-Q H2O) in a 5 mL vial. In order to mix the layers, the vial was shaken on vertex for 1 min. Then the mixture was transferred to a separating funnel. The separating funnel was closed and left standing for 3 h to separate the organic and the H2O layer. Both layers were taken separately and submitted tonreverse phase HPLC. The concentration of both layers was determined by HPLC - […]
Amount of 11a in 1-octanol = 2.41 mg/mL
Amount of 11a in H2O = 0.09 mg/mL
Partition coefficient (P) = amount of 11a in 1-octanol/ amount of 11a in H2O […]
Following the same procedure for starting material 11: LogP = -1.53
4 J. R. Espinosa, C. R. Wand, C. Vega, E. Sanz, D. Frenkel, J. Chem. Phys. 2018, 149, 224501.
(1 picture or pasted object on this page, not shown here)

[2] = Retention time in RP-HPLC as qualitative measure of lipophilicity; details: analytical RP-HPLC
Procedure: For example, the retention time of peptide 11 shifted from 5.8 to 13.6 min for 11 a and 20.2 min for 11 b (See SI). The partition coefficient (LogP) of product 11 a was determined to be 1.53 compared with −1.43 for 11.[24] […]
followed by dimethylformamide wash (4 x 3 mL). Fmoc groups were then removed by shaking the resin with 20% v/v piperidine in dimethylformamide at 400 rpm, over 5 minutes. This step was carried out twice. Next, washing steps were achieved with dimethylformamide (5 x 3 mL). Finally, resin was dried with dichloromethane (5 x 3 mL).
Peptide cleavage and deprotection: Peptides were deprotected and cleaved from the resin under reducing conditions, by treatment with 2.5% v/v water and 2.5% v/v triisopropylsilane (TIPS) in neat trifluoroacetic acid (5 mL). The resulting mixture was shaken for 2 hours at 400 rpm, at room temperature. The resin was removed by filtration and peptides were precipitated in cold diethyl ether (20 mL), followed by a 2 hours incubation at -20 °C. Peptides were pelleted by centrifugation at 4000 rpm, at 4 °C, for 5 minutes. […]
A. Fractions containing the desired peptide were lyophilized. The purity was assessed by analyzing a 10-20 mM peptide solution by RP-HPLC (HPLC gradient: 100% A to 100% B in 30 minutes. At the same time, low-resolution mass spectrometric measurements were also acquired. […]

[3] = Solubility in water of EBX reagents
[4] = Cleavage of thioesters with hydroxylamine; details: HPLC
Text: The obtained thioalkynes constitute a new type of lipophilic compounds lacking the electrophilic carbonyl group present in natural palmitoylated peptides, which is required for their hydrolysis. In presence of trifluoroacetic acid (TFA), clean hydration to give thioesters was observed (Scheme 5 a). This hydration can be performed in a one pot protocol with silylated and alkylated alkynes on both small and larger peptides to give thioesters such as 11 aa–bb, 17 aa–bb, 18 aa and 23 aa–bb in 58–82 % yield. 11 bb, 17 bb and 23 bb are then natural palmitoylated products. […] Numerous enzymatic and chemical methods have been reported for the cleavage of palmitoyl groups on cysteine.[25] […] Nevertheless, treatment with a KF solution followed by hydroxylamine also allowed to cleave this thioester with 90 % conversion. Taken together, our work therefore gives access to lipophilic peptide derivatives modifiable/cleavable under different conditions, which can be exploited depending on the desired application.
Cleavage of palmitoylthioester of Ac-Trp-Met-Asn-Ser-Thr-Gly-Phe-Thr-Lys-Val-Cys-Gly-Ala-NH2 (17bb) A 1.5 mL vial was charged with 17bb (0.5 mg, […],1.0 equiv.) 70 µL 1M NH2OH with a small magnetic bar. The NH2OH solution was freshly prepared in Milli Q water. Then the reaction mixture was stirred for 4 h at rt. […]
Yield for 17 and disulfide quantitative (retention time 5.0). […]

[5] = shake-flask 1-octanol/milli-Q H2O (0.85 mL + 0.85 mL), 2.5 mg, vortexed 1 min, left standing 3 h, both layers by RP-HPLC-UV 214 nm

Molecule: CC(=O)N[C@@H](C)C(=O)N[C@@H](CSC#C[Si](C(C)C)(C(C)C)C(C)C)C(=O)NCC(=O)N[C@@H](Cc1ccccc1)C(N)=O [11a] (Ac-AC(Ethynyl(2-Si(iPr)3))GF-NH2)
- logP [1, 5]: 1.53
- partition coefficient (LogP) [1, 5]: 1.43
- Partition coefficient (P) = amount in 1-octanol / amount in H2O ([1]; shake-flask 1-octanol/milli-Q H2O, HPLC-UV 214 nm): 26.78

Molecule: CC[C@H](C)[C@H](NC(=O)[C@H](Cc1ccccc1)NC(=O)[C@H](CSC#C[Si](C(C)C)(C(C)C)C(C)C)NC(=O)[C@@H](NC(=O)[C@H](CCC(N)=O)NC(=O)[C@H](CSC#C[Si](C(C)C)(C(C)C)C(C)C)NC(=O)[C@H](Cc1c[nH]cn1)NC(=O)[C@H](Cc1ccccc1)NC(C)=O)C(C)C)C(=O)N[C@H](C(N)=O)[C@@H](C)O [24a, Alkynylated (Phe32-Thr40) Ac-Phe-His-Cys-Gln-Val-Cys-Phe-Ile-Thr-NH2] (Ac-FHC(Ethynyl(2-Si(iPr)3))QVC(Ethynyl(2-Si(iPr)3))FIT-NH2)
- retention time (HPLC-MS of reaction mixture) ([2]; SI, HPLC gradient Method 1): 19.7

Molecule: CC(=O)N[C@@H](C)C(=O)N[C@@H](CS)C(=O)NCC(=O)N[C@@H](Cc1ccccc1)C(N)=O [compound 11, Ac-Ala-Cys-Gly-Phe-NH2] (Ac-ACGF-NH2)
- retention time in RP-HPLC ([2]; HPLC gradient Method 3 per SI): 5.8 min

Molecule: C14H29-EBX-SO3M [4b]
- solubility in water [3]: 0.45 g/mL
- solubility in water ([3]; Supporting Information): 0.45 g/mL

Molecule: K/Na-5-sulfonate TIPS-EBX-SO3M [4a]
- increase of solubility in water compared to TIPS-EBX (1) ([3]; 4a vs 1, water): more than fifty fold
- solubility in water [3]: 0.00046 g/mL
- solubility in water ([3]; Supporting Information): 0.46 g/mL

Molecule: silylthioester of H-Ala-Cys-Ala-Phe-Lys-Asp-NH2 [18aa]
- cleavage of the thioester by hydroxylamine ([4]; 1 M NH2OH in Milli Q water, rt, 4 h): reacts only very slowly
- conversion in thioester cleavage with KF and hydroxylamine ([4]; KF (28.7 equiv) and 1M NH2OH, 37 °C, 14 h): 90%
